Article PMC10447463, “Data-mining unveils structure–property–activity correlation of viral infectivity enhancing self-assembling peptides” (Nature Communications, 2023)
“And” between values parts separate entries of the source, which are not always exact repeats. Equal entries are not always repeated. Where two headings read alike, the source gives them in different places.

How the values were obtained:
[1] = ref sieste 2021 or Schilling2019, cited from earlier work
Description: Supplement 41467_2023_40663_MOESM7_ESM.zip/FigS17.csv, table | column: Conversion Rate / % ( from sieste 2021 or Schilling2019)

[2] = assay type: physicochemical; conditions: STD prep
[3] = assay type: physicochemical; conditions: for Tht category (> 1.5 to blank = +): category 1/0
Outline: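 Fibrils (1 mg/mL solution) were mixed with 50 µM ThT in PBS for 15 min at RT, and fluorescence was read at λex 440/λem 488 nm against a PBS blank, as a triplicate mean ± SD. Zeta potential came from electrophoretic mobility (Smoluchowski) after 1 d aggregation at 1 mg/mL in PBS pH 7.4, diluted into 1 mM KCl.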

[4] = β-sheet content by ATR-FT-IR; assay type: physicochemical
Outline: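 ATR FT-IR, diamond crystal, 64 scans, 2 cm^-1, on freeze-dried 1 mg/mL PNF; β-sheet per prior calculation. Fluorescamine CR: 3 kDa filter, DMSO redissolution, 20 min RT, ex 365/em 470 nm; values as n-fold enhancement over DMSO (set to 1).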

[5] = previously reported peptides only
[6] = ThT fluorescence relative to blank (42.1851851851852 a.u.)
[7] = ThT fluorescence relative to blank, blank = 42.1851851851852
[8] = relative to blank 42.1851851851852 a.u.

| Substance | Conversion Rate / % ( from sieste 2021 or Schilling2019) [1, 5] | TEM: 1= fibrils, 0= aggregates (micelle), 0.5 = aggregates and fibrils, -1 = nothing obersved, STD prep [2] | Tht rel to blank (42.1851851851852) [3, 6] | Tht rel to blank (42.1851851851852) [3, 7] | Tht category (> 1.5 to blank = +) [3] | Conversion Rate / % ( from sieste 2021 or Schilling2019) [1] | Tht rel to blank (42.1851851851852) [3, 8] | FTIR ß-sheet content/ % [4] | FTIR ß-sheet content/ % ([4]; ATR-FT-IR) |
| --- | --- | --- | --- | --- | --- | --- | --- | --- | --- |
| KIKIKIQI [TG13] | 80% | 1 | 2.036 | 2.036 | 1 (ThT. Cat is 1, if Rel. ThT >2) |  |  |  |  |
| CKAKAQANMWQ [BL8] |  | 0.5 | 1.86 |  | 0 (ThT-inactive (N-Fold <2)) | 92% | 1.86 |  |  |
| KIKIQI [JJA4] |  | 0.5 | 1.097 |  | 0 (ThT-inactive (N-Fold <2)) | 5% | 1.097 | 38.6% | 39% and 38.6% |
| CKIKIQINMWQ [MG1] |  | 1 | 4.566 |  | 1 (ThT. Cat is 1, if Rel. ThT >2) | 87% | 4.566 | 44.89% | 45% and 44.89% |
| CKFKFQFNM [BL3] |  | 1 | 2.383 |  | 1 (ThT. Cat is 1, if Rel. ThT >2) | 88% | 2.383 | 41% | 41% |
| MKFKFQF [DF5 / CK16] |  | 1 |  |  | 0 (ThT-inactive (N-Fold <2)) | 75% | 0.9846 |  | 21.97% |
| CEIEIQI [AR2/ TM142] |  | 1 | 2.23 |  | 1 (ThT. Cat is 1, if Rel. ThT >2) | 59% | 2.23 |  |  |
| CKIKQIINM [BL1] | 45% | 1 | 14.67 | 14.67 | 1 (ThT. Cat is 1, if Rel. ThT >2) |  | 14.67 | 46% | 46% |
| CKIKQII [MG4a] | 55% | 0.5 | 3.914 | 3.914 | 1 (ThT. Cat is 1, if Rel. ThT >2) |  | 3.914 | 25% | 25% |
| KFKFQF [JJA6] |  | 0.5 | 1.156 |  | 0 (ThT-inactive (N-Fold <2)) | 83% | 1.156 | 46% | 46% |
| CSISIQI [TM141] |  | 1 |  |  | 1 (ThT. Cat is 1, if Rel. ThT >2) | 82% | 15.04 |  | 58.57% |
| KIKQII [msis21] | 6% | 0 | 1.001 | 1.001 | 0 (ThT-inactive (N-Fold <2)) |  |  | 38.67% | 39% and 38.67% |
| KIKIQINM [JGB2] |  | 1 | 1.587 |  | 0 (ThT-inactive (N-Fold <2)) | 64% | 1.587 | 41% | 41% |
| CSISIQINM [TM145] |  | 0.5 |  |  | 1 (ThT. Cat is 1, if Rel. ThT >2) | 86% | 5.919 |  |  |
| KFKFKFQF [TG18] | 94% | 1 | 41.89 | 41.89 | 1 (ThT. Cat is 1, if Rel. ThT >2) |  |  |  |  |
| CEIEIQINM [TM144] |  | 1 | 5.13 |  | 1 (ThT. Cat is 1, if Rel. ThT >2) | 43% | 5.13 |  |  |
| CKAKAQA [TM155] |  | 0.5 | 1.227 |  | 0 (ThT-inactive (N-Fold <2)) | 44% | 1.227 |  |  |
